Here are results for three molecules from patent US20120252820A1, “METHODS OF TREATING FUNGAL INFECTIONS” (NORTHEASTERN UNIVERSITY, priority 2008, published 2012).

Test [1] deals with C. albicans 3153A biofilms. The test can be described thus: Biofilm killing by antifungals, CFU determination. Format: cell-based, Candida albicans. The settings on record: for killing curve of biofilm: dose-dependent, 24 hrs challenge. As to the method: (§1) Biofilms of C. albicans 3153A cells were cultured in wells of microtiter plates in RPMI medium for 48 hrs (Ramage et al., Antimicrob. Agents Chemother. 45:2475-2479 (2001)), washed twice in PBS, pH 7.4, to remove nonadherent cells, and resuspended in 100 μl RPMI growth medium containing antifungals. After 24 hrs of antifungal challenge, the biofilms and cultures were washed twice, resuspended in 100 μl PBS, scraped, transferred into eppendorf tubes, vortexed and plated for colony forming unit (CFU) determination on YPD medium. […] This could lead to an underestimation of surviving cells by a factor of ≦10. In parallel, exponentially growing and stationary planktonic cultures were grown for 48 hrs in RPMI medium, and then antifungals were added for 24 hrs. The experiment was performed in triplicate and error bars indicate standard deviation (see FIGS. 1A-1B).
Biofilms were grown in microtiter plates and were treated with amphotericin B or chlorhexidine (100 μg/ml) for 24 hrs, after which they were washed and vortexed, as discussed above. The cells were then reinoculated into microtiter plates to form new biofilms. The new biofilms, derived from persisters that survived drug treatment, were again treated with the antifungal agents (as discussed above), and the procedure was repeated a total of 3 times. Biofilms were sampled for CFU determination before and after antifungal treatment. The experiment was performed in triplicate.
Tests were also performed to determine if yeast persisters were multidrug tolerant. Mature, 48 hr biofilms of C. albicans were challenged for 24 hrs with 100 μg/ml amphotericin B, 100 μg/ml chlorhexidine, or a combination of these two antifungal agents, using the same procedures discussed above. Biofilms were washed and sampled for CFU determination before and after antifungal treatment, as discussed above.

The test system of test [2] is C. albicans 3153A planktonic cultures. Briefly: Killing of exponentially growing and stationary planktonic cultures, CFU determination. The format is cell-based, Candida albicans. As to conditions: planktonic cultures in RPMI, antifungal 24 hrs. On the procedure:
as §1

Test [3] concerns Biofilm-Deficient Strains of C. albicans. Briefly: Persister formation by biofilm-deficient strains (survival to high levels of amphotericin B). Format: cell-based, Candida albicans. As to the method: as §1
Given that persisters appeared only in the biofilm, their formation was dependent on the same genes/pathways that determine biofilm development. A large panel of biofilm-defective mutants was therefore tested for their ability to produce persisters by measuring survival to high levels of amphotericin B. These mutants were able to adhere to the surface of a microtiter plate, making it possible to assay in the biofilm survival protocol described above. All strains appeared to produce essentially normal levels of persisters (Table 1).

Test [4] relates to C. albicans. The test can be described thus: MIC. Format: cell-based. The settings on record: Candida albicans.

In brackets after ≈: the same amount, converted by molar mass. Bounds are passed on as bounds.

As to `CC[C@H](C)C[C@H](C)CCCCCCCCC(=O)N[C@H]1C[C@@H](O)[C@@H](NCCN)NC(=O)[C@@H]2[C@@H](O)CCN2C(=O)[C@H]([C@H](O)CCN)NC(=O)[C@H]([C@H](O)[C@@H](O)c2ccc(O)cc2)NC(=O)[C@@H]2C[C@@H](O)CN2C(=O)[C@H]([C@@H](C)O)NC1=O` [Caspofungin, caspofungin], the killing of biofilms in test [1] (C. albicans 3153A biofilms, 24 hrs antifungal challenge, CFU) is on record as not above 10 fold.

Take `C[C@@H]1[C@H](O)[C@@H](C)/C=C/C=C/C=C/C=C/C=C/C=C/C=C/[C@H](O[C@@H]2O[C@H](C)[C@@H](O)[C@H](N)[C@@H]2O)C[C@@H]2O[C@](O)(C[C@@H](O)C[C@@H](O)[C@H](O)CC[C@@H](O)C[C@@H](O)CC(=O)O[C@H]1C)C[C@H](O)[C@H]2C(=O)O` [amphotericin B]: the “killing of exponentially growing and stationary cells” value in test [2] is on record as “effectively killed”. The “cells invulnerable (persisters) in biofilm” value in test [1] (biofilm, higher concentrations of the drug, 24 hrs) is “More than 1%”. In test [1] (CFU), the “killing curve of biofilm” value is given as “biphasic killing”. For the same molecule, the Persisters entry in test [3] (strain 3153A, control wild type) was “+++^1 (+++ indicates 1-2% survival)”; in test [3] (strain CAI4), “+^3 (+ indicates 0.05-0.1% survival)”; in test [3] (strain CJN698 (bcr1 with BCR1)), “++ (++ indicates 0.1-1% survival)”; in test [3] (strain CJN702 (bcr1)) it was “++ (++ indicates 0.1-1% survival)”; in test [3] (strain CKY136 (efg1)) it was “+++ (+++ indicates 1-2% survival)”; in test [3] (strain CKY138 (efg1 cph1Δ)), “++ (++ indicates 0.1-1% survival)”. The Persisters result was “++^2 (++ indicates 0.1-1% survival)” in test [3] (strain CKY357 (mkc1Δ)); “++ (++ indicates 0.1-1% survival)” in test [3] (strain DAY185); “++ (++ indicates 0.1-1% survival)” in test [3] (strain DAY286); “++ (++ indicates 0.1-1% survival)” in test [3] (strain GKO9 (mds3)); “++ (++ indicates 0.1-1% survival)” in test [3] (strain GKO443 (suv3)); “++ (++ indicates 0.1-1% survival)” in test [3] (strain GKO798 (kem1)). In addition, the Persisters result in test [3] (strain GKO814 (nup85)) is reported as “++ (++ indicates 0.1-1% survival)”; in test [3] (strain MC191 (flo8/flo8)), “+++ (+++ indicates 1-2% survival)”; in test [3] (strain MC195 (flo8 with FLO8-2)) it was “+ (+ indicates 0.05-0.1% survival)”; in test [3] (strain MC245 (flo8/FLO8)), “++ (++ indicates 0.1-1% survival)”.

For the molecule `[H]/N=C(\N/C(=N/[H])NCCCCCCNC(=N)NC(=N)Nc1ccc(Cl)cc1)Nc1ccc(Cl)cc1` [chlorhexidine], the lowest concentration to inhibit growth in test [4] (MIC) was 4 µg/mL (≈ 7.91 µM). Besides, the “killing of exponentially growing and stationary cells” value in test [2] was “eliminated”. In test [1] (biofilm, 24 hrs), the “concentration above which killing of persisters was observed” value is listed as “above 100 μg/ml” and the “concentration at which the biofilm was completely sterilized” value is 1000 µg/mL. Also, the “killing curve of biofilm” value in test [1] (CFU) is “biphasic killing”.
